{
  "source": "ChEMBL document CHEMBL4406815",
  "about": "“Natural product derived promising anti-MRSA drug leads: A review” (Bioorg Med Chem, 2019)",
  "key": {"Staphylococcus aureus [1]": {"system": "Staphylococcus aureus", "experiment": "Antibacterial activity against methicillin-sensitive Staphylococcus aureus ATCC 25923 after 24 to 72 hrs by two-fold serial dilution method", "format": "functional"}, "Staphylococcus aureus [2]": {"system": "Staphylococcus aureus", "experiment": "Antibacterial activity against methicillin resistant Staphylococcus aureus BAA 1762 after 24 to 72 hrs by two-fold serial dilution method", "format": "functional"}, "Staphylococcus aureus [3]": {"system": "Staphylococcus aureus", "experiment": "Antibacterial activity against methicillin-resistant Staphylococcus aureus", "format": "functional"}, "Staphylococcus aureus [4]": {"system": "Staphylococcus aureus", "experiment": "Bactericidal activity against methicillin-resistant Staphylococcus aureus", "format": "functional"}, "Erythrocyte": {"system": "Erythrocyte", "experiment": "Hemolytic activity against human erythrocytes", "format": "ADME, cell-based"}, "[5]": {"experiment": "Cytotoxicity against African green monkey Vero cells assessed as reduction in cell viability by MTT assay", "format": "cell-based", "conditions": "chlorocebus sabaeus, read-out: MIC"}, "Staphylococcus aureus [6]": {"system": "Staphylococcus aureus", "experiment": "Antimicrobial activity against Staphylococcus aureus ATCC 6538 after 24 hrs by colony counting method", "format": "functional", "conditions": "ATCC 6538, 24 h"}, "Staphylococcus aureus [7]": {"system": "Staphylococcus aureus", "experiment": "Antibacterial activity against methicillin-resistant Staphylococcus aureus ATCC 33591", "format": "functional"}, "Staphylococcus aureus [8]": {"system": "Staphylococcus aureus", "experiment": "Antibacterial activity against methicillin-resistant Staphylococcus aureus ATCC 43300", "format": "functional"}, "Staphylococcus aureus [9]": {"system": "Staphylococcus aureus", "experiment": "Antibacterial activity against methicillin-resistant Staphylococcus aureus TISTR 1466 by two-fold serial dilution method", "format": "functional"}, "Staphylococcus aureus [10]": {"system": "Staphylococcus aureus", "experiment": "Antibacterial activity against methicillin-resistant Staphylococcus aureus CGMCC 1.12409", "format": "functional"}, "[11]": {"experiment": "Inhibition of methicillin-resistant Staphylococcus aureus pyruvate kinase"}, "Staphylococcus aureus [12]": {"system": "Staphylococcus aureus", "experiment": "Antibacterial activity against methicillin-resistant Staphylococcus aureus ATCC 43300 after 18 hrs", "format": "functional, organism-based", "conditions": "ATCC 43300, 18 h"}, "Staphylococcus aureus [13]": {"system": "Staphylococcus aureus", "experiment": "Antibacterial activity against methicillin-resistant Staphylococcus aureus SK1 by two-fold serial dilution method", "format": "functional"}, "HT-29": {"system": "HT-29", "experiment": "Cytotoxicity against human HT-29 cells assessed as reduction in cell viability after 24 hrs by MTS assay", "format": "functional, cell-based", "conditions": "HT-29, 24 h"}},
  "data": [
    {"smiles": "COC(=O)/C=C/C(=O)c1ccc(Cl)cc1", "values": [
      {"measurement": "MIC", "setting": "Staphylococcus aureus [1]", "value": "0.35 to 0.75", "unit": "µg/mL"},
      {"measurement": "MIC", "setting": "Staphylococcus aureus [2]", "value": "0.35 to 0.75", "unit": "µg/mL"}
    ]},
    {"smiles": "COc1ccc2c(c1OC)C(O)N(C)c1c-2ccc2cc3c(cc12)OCO3", "note": "(stereo not given)", "values": [
      {"measurement": "MIC", "setting": "Staphylococcus aureus [3]", "value": "0.49 to 15.6", "unit": "µg/mL"},
      {"measurement": "MBC", "setting": "Staphylococcus aureus [4]", "value": "1.95 to 62.5", "unit": "µg/mL"}
    ]},
    {"smiles": "COc1c(OCCCCN)cc2oc3cc(OCCCCN)c(CC=C(C)C)c(O)c3c(=O)c2c1CC=C(C)C", "values": [
      {"measurement": "MHC", "setting": "Erythrocyte", "value": 80.2, "unit": "µg/mL"},
      {"measurement": "MIC", "setting": "Staphylococcus aureus [3]", "value": "1560 to 3120", "unit": "µM"}
    ]},
    {"smiles": "CCCC(=O)C1=C(O)C(C)(C)C(O)=C(Cc2c(O)c(C)c(OC)c(C(=O)CCC)c2O)C1=O", "values": [
      {"measurement": "MCC", "setting": "[5]", "value": 48.1, "unit": "µg/mL"},
      {"measurement": "MIC", "setting": "Staphylococcus aureus [6]", "value": "15 to 62", "unit": "µg/mL"}
    ]},
    {"smiles": "CCCCCCC(C)/C=C(\\C)C(=O)O[C@@]1(C)C(=O)C2=COC(C3=C(C)CC(O)CC3=O)=CC2=C(Cl)C1=O", "note": "(stereo not given in full)", "values": [
      {"measurement": "MIC", "setting": "Staphylococcus aureus [7]", "value": "3.13 to 6.25", "unit": "µg/mL"},
      {"measurement": "MIC", "setting": "Staphylococcus aureus [8]", "value": "3.13 to 6.25", "unit": "µg/mL"}
    ]},
    {"smiles": "CCCCCCC(C)/C=C(\\C)C(=O)O[C@@]1(C)C(=O)C=C2C=C(c3c(C)cccc3O)OC=C2C1=O", "note": "(stereo not given in full)", "values": [
      {"measurement": "MIC", "setting": "Staphylococcus aureus [7]", "value": "3.13 to 6.25", "unit": "µg/mL"},
      {"measurement": "MIC", "setting": "Staphylococcus aureus [8]", "value": "3.13 to 6.25", "unit": "µg/mL"}
    ]},
    {"smiles": "CCCCCCC(C)/C=C(\\C)C(=O)O[C@@]1(C)C(=O)C2=COC(c3c(C)cccc3O)=CC2=C(Cl)C1=O", "note": "(stereo not given in full)", "values": [
      {"measurement": "MIC", "setting": "Staphylococcus aureus [7]", "value": "3.13 to 6.25", "unit": "µg/mL"},
      {"measurement": "MIC", "setting": "Staphylococcus aureus [8]", "value": "3.13 to 6.25", "unit": "µg/mL"}
    ]},
    {"smiles": "CCCCOc1c(OC)cc(/C=C2\\SC(=O)NC2=O)c2c1CN1CCc3cc4c(cc3C1C2)OCO4", "note": "(stereo not given)", "values": [
      {"measurement": "MIC", "setting": "Staphylococcus aureus [3]", "value": 8, "unit": "µM"}
    ]},
    {"smiles": "C=C(C)/C=C/c1c(C(=O)OC)cc(O)c2[nH]c3ccccc3c12", "values": [
      {"measurement": "MIC", "setting": "Staphylococcus aureus [9]", "value": 4, "unit": "µg/mL"}
    ]},
    {"smiles": "CC1=C[C@H]2c3c(O)c(O)c4oc5cc(O)cc(O)c5c(=O)c4c3[C@H](c3cc(O)c(O)c4oc5cc(O)cc(O)c5c(=O)c34)[C@H]2C(C)(C)C1", "values": [
      {"measurement": "MIC", "setting": "Staphylococcus aureus [10]", "value": 3.9, "unit": "µg/mL"},
      {"measurement": "MIC", "setting": "Staphylococcus aureus [8]", "value": 3.9, "unit": "µg/mL"}
    ]},
    {"smiles": "COc1cc(OC)c(C2COc3c(cc(/C=C/C(=O)c4ccco4)c4c3C=CC(C)(C)O4)C2)cc1/C=C/C(=O)c1ccco1", "note": "(stereo not given)", "values": [
      {"measurement": "MIC", "setting": "Staphylococcus aureus [3]", "value": 12.5, "unit": "µg/mL"}
    ]},
    {"smiles": "O=C1NC[C@@H](c2c[nH]c3cc(Br)ccc23)N[C@H]1c1c[nH]c2cc(Br)ccc12", "note": "(relative stereo) [CIS-3,4-DIHYDROHAMACANTHIN B]", "values": [
      {"measurement": "MIC", "setting": "Staphylococcus aureus [3]", "value": 12.5, "unit": "µg/mL"},
      {"measurement": "IC50", "setting": "[11]", "value": "0.016 to 0.06", "unit": "µM"}
    ]},
    {"smiles": "COc1c(-c2ccc(O)c(O)c2)oc2cc(O)cc(O)c2c1=O", "note": "[3-O-METHYLQUERCETIN]", "values": [
      {"measurement": "IC50", "setting": "Staphylococcus aureus [12]", "value": 6.4, "unit": "µM"}
    ]},
    {"smiles": "C=C(C)C1Cc2c(cc(OC)c3[nH]c4ccccc4c23)C(=O)O1", "note": "(stereo not given) [CLAUSAMINE B]", "values": [
      {"measurement": "MIC", "setting": "Staphylococcus aureus [13]", "value": 0.25, "unit": "µg/mL"},
      {"measurement": "MIC", "setting": "Staphylococcus aureus [9]", "value": 8, "unit": "µg/mL"}
    ]},
    {"smiles": "COc1ccc2cc1Oc1ccc(cc1)C[C@H]1c3cc(c(OC)cc3CCN1C)Oc1c(OC)c(OC)cc3c1[C@H](C2)N(C)CC3", "note": "[FANCHININ]", "values": [
      {"measurement": "MIC", "setting": "Staphylococcus aureus [3]", "value": "6 to 128", "unit": "µg/mL"},
      {"measurement": "MIC", "setting": "Staphylococcus aureus [4]", "value": "256 to 1020", "unit": "µg/mL"}
    ]},
    {"smiles": "COc1ccc2cc1Oc1ccc(cc1)C[C@H]1c3cc(c(OC)cc3CCN1C)Oc1c(O)c(OC)cc3c1[C@H](C2)N(C)CC3", "note": "[FANGCHINOLINE]", "values": [
      {"measurement": "MIC", "setting": "Staphylococcus aureus [3]", "value": "6 to 128", "unit": "µg/mL"},
      {"measurement": "MIC", "setting": "Staphylococcus aureus [4]", "value": "256 to 1020", "unit": "µg/mL"}
    ]},
    {"smiles": "O=c1cc(-c2ccc(O)c(O)c2)oc2cc(O)cc(O)c12", "note": "[LUTEOLIN]", "values": [
      {"measurement": "IC50", "setting": "HT-29", "value": 45, "unit": "µM"}
    ]},
    {"smiles": "CN[C@H](CC(C)C)C(=O)N[C@H]1C(=O)N[C@@H](CC(N)=O)C(=O)N[C@H]2C(=O)N[C@H]3C(=O)N[C@H](C(=O)N[C@H](C(=O)O)c4cc(O)cc(O)c4-c4cc3ccc4O)[C@H](O)c3ccc(c(Cl)c3)Oc3cc2cc(c3O[C@@H]2O[C@H](CO)[C@@H](O)[C@H](O)[C@H]2O[C@H]2C[C@](C)(N)[C@H](O)[C@H](C)O2)Oc2ccc(cc2Cl)[C@H]1O", "note": "[VANCOMYCIN]", "values": [
      {"measurement": "MIC", "setting": "Staphylococcus aureus [3]", "value": 1.25, "unit": "µg/mL"}
    ]}
  ]
}
